In US6780842B2, “Ceruloplasmin and an antioxidant composition comprising the same and their uses as neuroprotective agent” (Warner-Lambert Company LLC, priority 1999, dated 2004):

What was measured:
[1] = system: CP ferroxidase activity; experiment: CP ferroxidase activity after incubation with H2O2, without or with pyruvate; type: biochemical, bovine; conditions: FIG. 8; 5 mM pyruvate, CP 4 μM, 5 mM H2O2, 37° C.
Experimental: CP (4 μM) was incubated for different times (ranging from 0 to 12 h) in the presence of 5 mM H2O2, at 37° C., in PBS, without or with the addition of pyruvate (5 mM) as a protecting agent. At the end of incubation, catalase was added at a concentration of 0.1 mg/ml (84 U/ml) and incubation resumed at room temperature for 15 min in order to inactivate H2O2. Ferroxidase activity of CP was then measured by absorbence using a modified version of the method of Erel (1998). This method uses a chromogen to complex Fe^2+ ions that were not transformed to Fe^3+ions in the assay solution. The reaction mix contained 0.45M acetate buffer, pH 5.8, 60 μM Fe(NH4)2(SO4).6H2O, and either CP (sample), 25 mM EDTA (control corresponding to 100% iron oxidation) or PBS (control corresponding to 0% iron oxidation).
FIG. 8. Protection of CP ferroxidase activity by pyruvate in vitro. CP was incubated for various times, at 37° C., in the presence of 5 mM H2O2, without (No protection) or with 5 mM sodium pyruvate. The reaction was stopped by a 5 min incubation with an excess of catalase. Ferroxidase activity was then measured and expressed relatively (%) to that of a control CP sample not exposed to H2O2. The experiment was done three times, in duplicate determinations, and results are expressed as means±S.D.

[2] = Atanasiu et al., 1998; cited from earlier work
[3] = system: P19 neurons; experiment: Viability of P19 neurons exposed to XA/XAO prooxidant system (Alamar Blue); type: cell-based; conditions: FIG. 3
Experimental: (§1) Culture and neuronal differentiation of P19 embryonal carcinoma cells were done according to the procedures of Jeannotte et al. (1997) with the following modifications for microscale adaptation of cultures to 96-well plates: cell aggregates obtained at day 4 of the treatment of P19 cells with retinoic acid were trypsinized with 0.025% trypsin-1 mM EDTA in PBS and subjected to mechanical passages to obtain individual cells which were seeded in gelatin-precoated microwells at a density of 0.7-1×10^5 cells per well. The newly seeded cells (neurons) were cultured in supplemented Neurobasal medium (Neurobasal® containing 0.5 mM L-glutamine and 0.5% B27 supplement) until exposure to oxidative conditions at day 7. […]
(§2) P19 neurons were exposed to the following prooxidant systems: i) XA/XAO system (which produces •O2^− superoxide radicals and hydrogen peroxide H2O2, according to equation 1, shown below); ii) hydrogen peroxide H2O2; and iii) H2O2/Fe^+2 system (which generates •OH [hydroxyl radicals] via the Fenton reaction, equation 2). […] After they were incubated under oxidative conditions, neurons were analyzed for their residual viability by a fluorimetric assay using the Alamar Blue probe (see section 2.5). […]
(§3) After they were incubated under oxidative conditions, neurons were analyzed for their residual viability by a fluorimetric assay using the Alamar Blue probe. […]

[4] = system: P19 neurons; experiment: Viability of P19 neurons exposed to H2O2 (Alamar Blue); type: cell-based; conditions: catalase 84 U; 5 mM hydrogen peroxide during 30 min
Experimental: as §1, §2, §3

[5] = In vitro antioxidant capacity: inhibition of DPD oxidation by H2O2; type: biochemical; conditions: 84 U catalase; 30 min exposure to 5 mM H2O2 (not shown)
Experimental: Oxidation of N,N-diethyl-p-phenylenediamine (DPD) by a prooxidant system was used as a general reporter of the amount of ROS generated by that system (Anonymous, 1985; Chahine et al., 1991). Antioxidant capacity of preparations of TRIAD (or of its components) was defined as the ability to inhibit the oxidation of DPD by prooxidants.
To estimate the antioxidant capacity of TRIAD preparations in the prooxidant conditions used with P19 neurons, DPD was added to a final concentration of 32 mM to 200 μl of each prooxidant system described above (see section 2.4) and incubated for the times tested with the cells. At the end of incubation, the amount of oxidized DPD was determined at 560 nm using a spectrophotometer adapted to microscale measurement.
FIG. 5. In vitro antioxidant capacity of CP and TRIAD, in the conditions of H2O2 prooxidant system used with P19 neurons. In this assay, conditions of incubation were as described in the legend to FIG. 4 except that P19 neurons were replaced by N,N-diethyl-p-phenylenediamine (DPD) which absorbs at 560 nm upon oxidation. The experiment was done four times, in triplicate determinations, and results are expressed as means±S.D.

Compound: CC(=O)C(=O)[O-].[Na+] [pyruvate, sodium pyruvate]
- Protection of CP ferroxidase activity against H2O2 [1]: inhibited the loss of ferroxidase activity

Compound: albumin
- Concentration ensuring good antioxidative activity in vitro [2]: 260 µM

Compound: catalase
- XAO concentration up to which protection was offered ([3]; 250 μM XA, CP 4 μM, catalase 84 U): up to 50 mU/mL
- Protection to neurons ([3]; 84 U catalase, incubated for 40 min with XAO in the presence of 250 μM XA): about 10%
- Protection to neurons [4]: 100%
- Inhibition of DPD oxidation by H2O2 [5]: completely inhibit DPD oxidation
